Measurements from patent publication US20250114460A1, “NOVEL PLK1 DEGRADATION INDUCING COMPOUND” (UPPTHERA, INC., priority 2021, published 2025).

Columns and labels:
Assay type in all cases: cell-based
[1] = biological target: T1, PLK1 (Homo sapiens, UniProt P53350); experiment: Luciferase assay for PLK1 in HeLa LgBit (Plk1-HiBit KI) cell line; conditions: 300 nM compound, luminescence after 9 hours
T1 construct: endogenous in cells; host or cells: HeLa LgBit (Plk1-HiBit KI): HeLa stably expressing LgBit, with a CRISPR/Cas9 knock-in of HiBit at the endogenous PLK1 locus
T1 sequence (P53350 whole entry): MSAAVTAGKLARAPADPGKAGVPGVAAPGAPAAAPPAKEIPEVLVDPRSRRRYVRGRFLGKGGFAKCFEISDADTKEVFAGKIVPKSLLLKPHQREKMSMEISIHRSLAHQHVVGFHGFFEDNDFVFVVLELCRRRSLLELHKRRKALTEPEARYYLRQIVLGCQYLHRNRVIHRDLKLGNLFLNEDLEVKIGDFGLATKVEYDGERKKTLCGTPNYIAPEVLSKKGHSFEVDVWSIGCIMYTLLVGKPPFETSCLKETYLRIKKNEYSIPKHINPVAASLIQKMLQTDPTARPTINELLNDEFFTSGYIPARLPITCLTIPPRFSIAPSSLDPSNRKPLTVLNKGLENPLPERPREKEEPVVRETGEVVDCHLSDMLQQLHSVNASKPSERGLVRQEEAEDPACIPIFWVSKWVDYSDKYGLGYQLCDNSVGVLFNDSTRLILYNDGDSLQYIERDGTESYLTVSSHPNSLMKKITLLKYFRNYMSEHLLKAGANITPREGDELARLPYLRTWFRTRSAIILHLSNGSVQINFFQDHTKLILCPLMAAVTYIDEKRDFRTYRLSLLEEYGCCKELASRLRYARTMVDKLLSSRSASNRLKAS
How it was run: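 Luminescence, followed in real time after adding compound at 300 nM and Endurazine substrate, is reported relative to DMSO-treated wells. Cells are a HeLa LgBit line with a Plk1-HiBit knock-in, synchronized by 2 mM thymidine for 24 h, released, and cultured 18 h before treatment.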

[2] = system: MRC-5 cell line; experiment: Cell viability assay for MRC-5 cell line (EZ-Cytox); conditions: Homo sapiens, MRC5, 120 h; MRC-5 normal cell line, 5 days, 10000 nM to 1.52 nM; N.D. = no cytotoxicity until 10 μM; read-out: Activity: IC50 value of Exemplary Compound to MRC-5 cell line
Procedure: 4. Cell Viability Assay for MRC-5 Cell Line
(1) Culture of MRC-5 Cell Line
Passage of cultured cells was maintained within P15.
(2) Treatment of Compounds of the Present Invention
Then, it was cultured in 37° C.
(3) Cytotoxicity Experiment
CO2 incubator for 4 hours.

[3] = system: NCI-H526 cell line; experiment: Cell viability assay for H526 cell (EZ-Cytox); conditions: Homo sapiens, NCI-H526, 120 h; H526 cells, 5 days, 3000 nM to 0.46 nM
How it was run: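 Read-out was EZ-Cytox colorimetric absorbance at 450 nm, taken after brief plate shaking, with IC50 derived. Before reading, H526 cells had been cultured with test compound for 5 days.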

Row | Structure (SMILES) | Activity: ratio of the luminescense value of each Exemplary Compound treatment group to DMSO treatment group [1] | IC50 [2] [µM] | IC50 [3] [µM]
1 | COc1cc(C(=O)NC2CCN(CCCN3CCN(c4cccc5c4C(=O)N(C4CCC(=O)NC4=O)C5=O)CC3)CC2)ccc1Nc1ncc2c(n1)N(C1CCCC1)CC(F)(F)C(=O)N2C (stereo not drawn) [Compound 60, 4-((9-cyclopentyl-7,7-difluoro-5-methyl-6-oxo-6,7,8,9-tetrahydro-5H-pyrimido[4,5-b][1,4]diazepin-2-yl)amino)-N-(1-(3-(4-(2-(2,6-dioxopiperidin-3-yl)-1,3-dioxoisoindolin-4-yl)piperazin-1-yl)propyl)piperidin-4-yl)-3-methoxybenzamide] | ++ (++<0.6) | 4.19 | < 0.03
2 | COc1cc(C(=O)N[C@H]2CC[C@H](N(C)CC3CCN(c4cccc5c4C(=O)N(C4CCC(=O)NC4=O)C5=O)CC3)CC2)ccc1Nc1ncc2c(n1)N(C(C)C)CC(F)(F)C(=O)N2C (stereo partly drawn) [Compound 152, 4-((7,7-difluoro-9-isopropyl-5-methyl-6-oxo-6,7,8,9-tetrahydro-5H-pyrimido[4,5-b][1,4]diazepin-2-yl)amino)-N-((1r,4r)-4-(((1-(2-(2,6-dioxopiperidin-3-yl)-1,3-dioxoisoindolin-4-yl)piperidin-4-yl)methyl)(methyl)amino)cyclohexyl)-3-methoxybenzamide] | ++ (++<0.6) | 6.17 | < 0.05
3 | COc1cc(C(=O)NN2CCC(N3CC4(CCN(c5ccc6c(c5)CN(C5CCC(=O)NC5=O)C6=O)CC4)C3)CC2)ccc1Nc1ncc2c(n1)N(C(C)C)CC(F)(F)C(=O)N2C (stereo not drawn) [Compound 219, 4-((7,7-difluoro-9-isopropyl-5-methyl-6-oxo-6,7,8,9-tetrahydro-5H-pyrimido[4,5-b][1,4]diazepin-2-yl)amino)-N-(4-(7-(2-(2,6-dioxopiperidin-3-yl)-1-oxoisoindolin-5-yl)-2,7-diazaspiro[3.5]nonan-2-yl)piperidin-1-yl)-3-methoxybenzamide] | ++ (++<0.6) | 13 | < 0.03
4 | COc1cc(C(=O)NN2CCN(C3CCN(c4cccc5c4C(=O)N(C4CCC(=O)NC4=O)C5=O)C3)CC2)ccc1Nc1ncc2c(n1)N(C1CCCC1)CC(F)(F)C(=O)N2C (stereo not drawn) [Compound 51, 4-((9-cyclopentyl-7,7-difluoro-5-methyl-6-oxo-6,7,8,9-tetrahydro-5H-pyrimido[4,5-b][1,4]diazepin-2-yl)amino)-N-(4-(1-(2-(2,6-dioxopiperidin-3-yl)-1,3-dioxoisoindolin-4-yl)pyrrolidin-3-yl)piperazin-1-yl)-3-methoxybenzamide] | ++ (++<0.6) | > 10 | < 0.03
5 | COc1cc(C(=O)NC2CCN(CCOc3cccc4c3C(=O)N(C3CCC(=O)NC3=O)C4=O)CC2)ccc1Nc1ncc2c(n1)N(C1CCCC1)CC(F)(F)C(=O)N2C (stereo not drawn) [Compound 5, 4-((9-cyclopentyl-7,7-difluoro-5-methyl-6-oxo-6,7,8,9-tetrahydro-5H-pyrimido[4,5-b][1,4]diazepin-2-yl)amino)-N-(1-(2-((2-(2,6-dioxopiperidin-3-yl)-1,3-dioxoisoindolin-4-yl)oxy)ethyl)piperidin-4-yl)-3-methoxybenzamide] | ++ (++<0.6) | 20 | < 0.4
6 | COc1cc(C(=O)NN2CCN(C3CCN(c4cccc5c4C(=O)N(C4CCC(=O)NC4=O)C5=O)CC3(F)F)CC2)ccc1Nc1ncc2c(n1)N(C(C)C)CC(F)(F)C(=O)N2C (stereo not drawn) [Compound 167, 4-((7,7-difluoro-9-isopropyl-5-methyl-6-oxo-6,7,8,9-tetrahydro-5H-pyrimido[4,5-b][1,4]diazepin-2-yl)amino)-N-(4-(1-(2-(2,6-dioxopiperidin-3-yl)-1,3-dioxoisoindolin-4-yl)-3,3-difluoropiperidin-4-yl)piperazin-1-yl)-3-methoxybenzamide] | +++ (+++: <0.3) | > 10 | < 0.03
7 | COc1cc(C(=O)NC2CCCN(C(=O)CCN3CCN(c4cccc5c4C(=O)N(C4CCC(=O)NC4=O)C5=O)CC3)C2)ccc1Nc1ncc2c(n1)N(C1CCCC1)CC(F)(F)C(=O)N2C (stereo not drawn) [Compound 123, 4-((9-cyclopentyl-7,7-difluoro-5-methyl-6-oxo-6,7,8,9-tetrahydro-5H-pyrimido[4,5-b][1,4]diazepin-2-yl)amino)-N-(1-(3-(4-(2-(2,6-dioxopiperidin-3-yl)-1,3-dioxoisoindolin-4-yl)piperazin-1-yl)propanoyl)piperidin-3-yl)-3-methoxybenzamide] | ++ (++<0.6) | > 10 | < 0.1

The next lines start with results.

Row | Activity: ratio of the luminescense value of each Exemplary Compound treatment group to DMSO treatment group [1] | Structure (SMILES) | IC50 [2] [µM] | IC50 [3] [µM]
8 | ++ (++<0.6) | COc1cc(C(=O)NC2CCN(CCC3CCCN(c4cccc5c4C(=O)N(C4CCC(=O)NC4=O)C5=O)C3)CC2)ccc1Nc1ncc2c(n1)N(C1CCCC1)CC(F)(F)C(=O)N2C (stereo not drawn) [Compound 55, 4-((9-cyclopentyl-7,7-difluoro-5-methyl-6-oxo-6,7,8,9-tetrahydro-5H-pyrimido[4,5-b][1,4]diazepin-2-yl)amino)-N-(1-(2-(1-(2-(2,6-dioxopiperidin-3-yl)-1,3-dioxoisoindolin-4-yl)piperidin-3-yl)ethyl)piperidin-4-yl)-3-methoxybenzamide] | 3.81 | < 0.1
9 | ++ (++<0.6) | COc1cc(C(=O)NN2CCN(C3CCN(c4ccc5c(c4)C(=O)N(C4CCC(=O)NC4=O)C5=O)C3)CC2)ccc1Nc1ncc2c(n1)N(C1CCCC1)CC(F)(F)C(=O)N2C (stereo not drawn) [Compound 56, 4-((9-cyclopentyl-7,7-difluoro-5-methyl-6-oxo-6,7,8,9-tetrahydro-5H-pyrimido[4,5-b][1,4]diazepin-2-yl)amino)-N-(4-(1-(2-(2,6-dioxopiperidin-3-yl)-1,3-dioxoisoindolin-5-yl)pyrrolidin-3-yl)piperazin-1-yl)-3-methoxybenzamide] | > 10 | < 0.03
10 | +++ (+++: <0.3) | COc1cc(C(=O)N[C@H]2CC[C@H](N(C)CCN3CCN(c4cccc5c4C(=O)N(C4CCC(=O)NC4=O)C5=O)CC3)CC2)ccc1Nc1ncc2c(n1)N(C1CCCC1)CC(F)(F)C(=O)N2C (stereo partly drawn) [Compound 129, 4-((9-cyclopentyl-7,7-difluoro-5-methyl-6-oxo-6,7,8,9-tetrahydro-5H-pyrimido[4,5-b][1,4]diazepin-2-yl)amino)-N-((1r,4r)-4-((2-(4-(2-(2,6-dioxopiperidin-3-yl)-1,3-dioxoisoindolin-4-yl)piperazin-1-yl)ethyl)(methyl)amino)cyclohexyl)-3-methoxybenzamide] | 17.3 | < 0.03
11 | ++ (++<0.6) | COc1cc(C(=O)NC2CC3(CCN(CC4CCN(c5ccc6c(c5)C(=O)N(C5CCC(=O)NC5=O)C6=O)CC4)CC3)C2)ccc1Nc1ncc2c(n1)N(C1CCCC1)CC(F)(F)C(=O)N2C (stereo not drawn) [Compound 137, 4-((9-cyclopentyl-7,7-difluoro-5-methyl-6-oxo-6,7,8,9-tetrahydro-5H-pyrimido[4,5-b][1,4]diazepin-2-yl)amino)-N-(7-((1-(2-(2,6-dioxopiperidin-3-yl)-1,3-dioxoisoindolin-5-yl)piperidin-4-yl)methyl)-7-azaspiro[3.5]nonan-2-yl)-3-methoxybenzamide] | 16.9 | < 0.03
12 | +++ (+++: <0.3) | COc1cc(C(=O)NN2CCC(N3CC4(CCN(c5cccc6c5C(=O)N(C5CCC(=O)NC5=O)C6=O)CC4)C3)CC2)ccc1Nc1ncc2c(n1)N(C1CCCC1)CC(F)(F)C(=O)N2C (stereo not drawn) [Compound 211, 4-((9-cyclopentyl-7,7-difluoro-5-methyl-6-oxo-6,7,8,9-tetrahydro-5H-pyrimido[4,5-b][1,4]diazepin-2-yl)amino)-N-(4-(7-(2-(2,6-dioxopiperidin-3-yl)-1,3-dioxoisoindolin-4-yl)-2,7-diazaspiro[3.5]nonan-2-yl)piperidin-1-yl)-3-methoxybenzamide] | > 10 | < 0.03
13 | ++ (++<0.6) | COc1cc(C(=O)NCC2CCN(CCC3CCN(c4cccc5c4C(=O)N(C4CCC(=O)NC4=O)C5=O)C3)CC2)ccc1Nc1ncc2c(n1)N(C1CCCC1)CC(F)(F)C(=O)N2C (stereo not drawn) [Compound 50, 4-((9-cyclopentyl-7,7-difluoro-5-methyl-6-oxo-6,7,8,9-tetrahydro-5H-pyrimido[4,5-b][1,4]diazepin-2-yl)amino)-N-((1-(2-(1-(2-(2,6-dioxopiperidin-3-yl)-1,3-dioxoisoindolin-4-yl)pyrrolidin-3-yl)ethyl)piperidin-4-yl)methyl)-3-methoxybenzamide] | 11.3 | < 0.03
